Experimental data from patent publication US10376520B2, “Methods for the treatment of cardiovascular disorders” (Galapagos NV, priority 2015, dated 2019).

Test system: RA patients
Experiment: Triglycerides level (Selectra autoanalyzer), Study 4
Assay type: in vivo, human
Details: for Triglycerides level, 4 weeks CFB: 4 weeks change from baseline
Description: Randomized double-blind, placebo-controlled add on study in subjects with active RA who have an inadequate response to MTX monotherapy, in combination with methotrexate, administered for 4 weeks in the treatment of subjects with active rheumatoid arthritis who have an inadequate response to methotrexate alone.
Compound 1 (dosed as a [Compound 1:HCl:3H2O]) capsules administered orally in 30 mg, 75 mg, 150 mg, or 300 mg doses per day for 4 weeks.
Triglycerides, [HDL] cholesterol, and plasma cholesterol were measured on the Selectra autoanalyzer (Sopachem BV, 44-RI Straat 33, 4051 AP Ochten, The Netherlands). All assays were commercially available from DiaSys Diagnostic Systems GmbH, Alte Strasse 9, 65558 Holzheim, Germany.

For `O=C(Nc1nc2cccc(-c3ccc(CN4CCS(=O)(=O)CC4)cc3)n2n1)C1CC1` [Compound 1, cyclopropanecarboxylic acid {5-[4-(1,1-dioxo-thiomorpholin-4-ylmethyl)-phenyl]-[1,2,4]triazolo[1,5-a]pyridin-2yl}-amide], the “Triglycerides level, 4 weeks CFB” value (30 mg q.d.) was 51.7%, the Triglycerides level, Baseline (30 mg q.d.) was 1.2 mM and the Triglycerides level, week 4 (30 mg q.d.) was 1.7 mM. The “Triglycerides level, 4 weeks CFB” value (75 mg q.d.) was 6.6%, the Triglycerides level, Baseline (75 mg q.d.) was 1 mM and the Triglycerides level, week 4 (75 mg q.d.) was 1.1 mM. The “Triglycerides level, 4 weeks CFB” value (150 mg q.d.) was 93.6%, the Triglycerides level, Baseline (150 mg q.d.) was 1.4 mM and the Triglycerides level, week 4 (150 mg q.d.) was 2.1 mM. For the same compound, the “Triglycerides level, 4 weeks CFB” value (300 mg q.d.) was 23.3%, the Triglycerides level, Baseline (300 mg q.d.) was 1.3 mM and the Triglycerides level, week 4 (300 mg q.d.) was 1.4 mM.
